Experiment [1] concerns the target T1, Estrogen receptor (Homo sapiens, UniProt Q92731+P03372). Briefly: Inhibition of 10e-9 M E2 stimulated MCF-7 breast cancer cell proliferation. The format is functional, cell-based. Particulars: cancer cell lines.
Experiment [2] has as its target T1, Estrogen receptor. Put plainly: Inhibition of 10e-9 M E2 stimulated transcriptional activation in ER+MCF-7/2a breast cancer cells. Particulars: cancer cell lines. It is filed as functional, cell-based.
In experiment [3] the target is T1, Estrogen receptor. Briefly: Inhibition of ER+ MCF-7 breast cancer cell proliferation over 200 hr. Particulars: cancer cell lines.
Experiment [4] concerns the target T1, Estrogen receptor. Particulars: Cancer cell lines, at 10 µM.
Description: Inhibition of ER-MDA-MB 231 breast cancer cell proliferation over 96 hr at 10 uM
In experiment [5] the target is T1, Estrogen receptor. Particulars: Cancer cell lines, at 5 µM.
Description: Inhibition of ER-MDA-MB 231 breast cancer cell proliferation over 96 hr at 5 uM

Turning to `CCCCCSCCCCCCCCCC/C(=C(/CC)c1cccc(O)c1)c1ccc(O)cc1`, the values for the IC50 at Estrogen receptor [1] and at Estrogen receptor [2] were 590 nM and 200 nM, respectively.
Taken in the same sequence, the figures for `CCCCCSCCCCCCCCCC/C(=C(/CC)c1ccc(O)cc1)c1cccc(O)c1` were 2100 nM and 1200 nM.
Regarding `CCCCCS(=O)(=O)CCCCCCCCCC/C(=C(/CC)c1ccc(O)cc1)c1ccc(O)cc1`, the results for the IC50 against Estrogen receptor [1], against Estrogen receptor [3] and at Estrogen receptor [2] were 100 nM, 5.1 nM and 130 nM, respectively. For the same molecule, the T/C at Estrogen receptor [4] is -4%; on Estrogen receptor [5] it was 94%.
For `CC/C(=C(/CCCCCCN(C)CCCSCCCC(F)(F)C(F)(F)F)c1ccc(O)cc1)c1ccc(O)cc1`, in that order: 7 nM, 0.22 nM, 10 nM, -15% and -15%.
Take `CC/C(=C(/CCCCCC(=O)N(C)CCCSCCCC(F)(F)C(F)(F)F)c1ccc(O)cc1)c1ccc(O)cc1`: the values for the IC50 at Estrogen receptor [1] and against Estrogen receptor [2] were 700 nM and 310 nM, respectively.
For the molecule `C[C@]12CC[C@@H]3c4ccc(O)cc4C[C@@H](CCCCCCCCC[S+]([O-])CCCC(F)(F)C(F)(F)F)[C@H]3[C@@H]1CC[C@@H]2O` (some centres not stated), the T/C at Estrogen receptor [4] worked out at 95%; on Estrogen receptor [5], 93%.
On to `CCCCCSCCCN(C)C(=O)CCCCC/C(=C(/CC)c1ccc(O)cc1)c1ccc(O)cc1`, for which the IC50 (commonly the concentration that inhibits the measured activity by half) was found to be 1900 nM on Estrogen receptor [1] and 600 nM on Estrogen receptor [2].
For `CCCCCSCCCN(C)CCCCCC/C(=C(/CC)c1ccc(O)cc1)c1ccc(O)cc1`, the values for the IC50 on Estrogen receptor [1], against Estrogen receptor [3] and at Estrogen receptor [2] were 10 nM, 0.75 nM and 10 nM, respectively. In addition, the T/C is -25% at Estrogen receptor [4] and 75% at Estrogen receptor [5].
Take `CCCCCS(=O)(=O)CCCCCCCCCC/C(=C(/CC)c1cccc(O)c1)c1ccc(O)cc1`: the IC50 at Estrogen receptor [1] was 110 nM; at Estrogen receptor [3] it was 6.1 nM; at Estrogen receptor [2], 50 nM. Also, the T/C came out at 32% at Estrogen receptor [4] and 90% at Estrogen receptor [5].
In the case of `CCCCCS(=O)(=O)CCCCCCCCCCn1c(-c2ccc(O)cc2)c(C)c2cc(O)ccc21`, the 50% inhibitory concentration (IC50) against Estrogen receptor [1] was 50 nM; at Estrogen receptor [3] it was 1.4 nM; against Estrogen receptor [2], 20 nM. Moreover, the T/C on Estrogen receptor [4] was -2%; on Estrogen receptor [5], 84%.
`CCCCCS(=O)(=O)CCCCCCCCCC/C(=C(/CC)c1ccc(O)cc1)c1cccc(O)c1`: the values for the IC50 against Estrogen receptor [1], against Estrogen receptor [3] and at Estrogen receptor [2] were 270 nM, 49 nM and 370 nM, respectively. In addition, the T/C at Estrogen receptor [4] was -7%; on Estrogen receptor [5], 96%.
With `CCCCCSCCCCCCCCCC/C(=C(/CC)c1ccc(O)cc1)c1ccc(O)cc1`, the IC50 at Estrogen receptor [1] was 1400 nM; against Estrogen receptor [2], 790 nM.

The values above are taken from ChEMBL document CHEMBL1137833, “Synthesis and biological evaluation of stilbene-based pure estrogen antagonists” (Bioorg Med Chem Lett, 2004).
